Data as given in the supplement of paper PMC9663587.

Tests used:
Assay in all cases: GRmax, 72 h; higher = less effect;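 note: breast cell lines in 384-well plates, nine doses across a 10^4 range, Dye Drop imaging of viable cells vs DMSO and time-zero plates, GR 0 means no net growth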
[1] = tested on: HCC1428
[2] = tested on: HCC1500
[3] = tested on: MDAMB157

Compound	GRmax, 72 h [1] [GR]	GRmax, 72 h [2] [GR]	GRmax, 72 h [3] [GR]	GRmax, 72 h ([1]; main component drawn) [GR]	GRmax, 72 h ([2]; main component drawn) [GR]	GRmax, 72 h ([3]; main component drawn) [GR]
CC(=O)Nc1cccc(-n2c(=O)n(C3CC3)c(=O)c3c(Nc4ccc(I)cc4F)n(C)c(=O)c(C)c32)c1 (max 1 µM)	0.815	0.344	0.406			
CCc1cnn2c(NCc3ccc[n+]([O-])c3)cc(N3CCCC[C@H]3CCO)nc12 (max 1 µM)	-0.672	-0.572	-0.911			
CC(=O)c1c(C)c2cnc(Nc3ccc(N4CCNCC4)cn3)nc2n(C2CCCC2)c1=O (max 3.162 µM)	0.254	0.574	0.975			
CCc1cncnc1N1CCN(Cc2nc3ccc(C(F)(F)F)cc3[nH]2)CC1 (max 10 µM)	0.864	0.0495	0.11			
CCN1CCN(Cc2ccc(Nc3ncc(F)c(-c4cc(F)c5nc(C)n(C(C)C)c5c4)n3)nc2)CC1 (max 10 µM)	0.0492	0.22	-0.604			
Cc1nn(C)c(COc2ccc(N3CCN(S(=O)(=O)N(C)C)CC3)cc2)c1-c1cccc2c(CCCOc3cccc4ccccc34)c(C(=O)O)n(CCN3CCOCC3)c12 (max 10 µM)	0.816	0.872	0.788			
CN(C)CC[C@H](CSc1ccccc1)Nc1ccc(S(=O)(=O)NC(=O)c2ccc(N3CCN(Cc4ccccc4-c4ccc(Cl)cc4)CC3)cc2)cc1[N+](=O)[O-] [ABT-737] (max 10 µM)	0.243	-0.736	0.201			
NC(=O)Nc1cc(-c2cccc(F)c2)sc1C(=O)N[C@H]1CCCNC1 [AZD7762] (max 10 µM)	-0.215	-0.256	-0.786			
Cc1nc(NC(=O)N2CCC[C@H]2C(N)=O)sc1-c1ccnc(C(C)(C)C(F)(F)F)c1 [Alpelisib/BYL719] (max 10 µM)	0.853	0.581	0.492			
Cc1c(N)nc([C@H](CC(N)=O)NC[C@H](N)C(N)=O)nc1C(=O)N[C@H](C(=O)N[C@H](C)[C@@H](O)[C@H](C)C(=O)N[C@H](C(=O)NCCc1nc(-c2nc(C(=O)NCCC[S+](C)C)cs2)cs1)[C@@H](C)O)[C@@H](OC1OC(CO)C(O)C(O)C1OC1OC(CO)C(O)C(OC(N)=O)C1O)c1cnc[nH]1 (some centres not stated) [Bleomycin] (max 10 µM)				0.217	0.174	-0.281
Nc1cc(C(F)(F)F)c(-c2cc(N3CCOCC3)nc(N3CCOCC3)n2)cn1 [Buparlisib/NVP-BKM120] (max 10 µM)	-0.265	-0.546	-0.641			
COc1cc2nccc(Oc3ccc(NC(=O)C4(C(=O)Nc5ccc(F)cc5)CC4)cc3)c2cc1OC [Cabozantinib] (max 10 µM)	0.631	0.184	0.149			
COc1cc2c(Oc3ccc4[nH]c(C)cc4c3F)ncnc2cc1OCCCN1CCCC1 [Cediranib/AZD2171] (max 10 µM)	-0.55	-0.808	-0.585			
Cc1cc(Nc2ncc(Cl)c(Nc3ccccc3S(=O)(=O)C(C)C)n2)c(OC(C)C)cc1C1CCNCC1 [Ceritinib/LDK378] (max 10 µM)	-0.867	-0.954	-0.926			
N.N.[Cl][Pt][Cl] [Cisplatin] (max 10 µM)	0.122	0.207	0.189			
Cc1nc(Nc2ncc(C(=O)Nc3c(C)cccc3Cl)s2)cc(N2CCN(CCO)CC2)n1 [Dasatinib] (max 10 µM)	0.578	-0.159	0.0683			
COc1cccc2c1C(=O)c1c(O)c3c(c(O)c1C2=O)C[C@@](O)(C(=O)CO)C[C@@H]3O[C@H]1C[C@H](N)[C@H](O)[C@H](C)O1 [Doxorubicin] (max 3.162 µM)	-0.74	-0.713	-0.777			
COc1cc([C@@H]2c3cc4c(cc3[C@@H](O[C@@H]3O[C@@H]5CO[C@@H](C)O[C@H]5[C@H](O)[C@H]3O)[C@H]3COC(=O)[C@H]23)OCO4)cc(OC)c1O [Etoposide] (max 10 µM)	-0.032	-0.0766	-0.434			
CO[C@H]1C[C@@H]2CC[C@@H](C)[C@@](O)(O2)C(=O)C(=O)N2CCCC[C@H]2C(=O)O[C@H]([C@H](C)C[C@@H]2CC[C@@H](OCCO)[C@H](OC)C2)CC(=O)[C@H](C)/C=C(\C)[C@@H](O)[C@@H](OC)C(=O)[C@H](C)C[C@H](C)/C=C/C=C/C=C/1C [Everolimus] (max 10 µM)	0.346	-0.31	0.481			
